Where “and” joins values, the source holds several entries; their conditions need not be identical. Identical values can stand only once.
Tests used:
BAZ2A = test system: BAZ2A; parameters: method as in PMID 25799074, PMID 25719566; conditions: cited from earlier work
BAZ2A bromodomain [1] = biological target: T1, BAZ2A bromodomain (Homo sapiens, UniProt Q9UIF9); experiment: AlphaScreen competition binding assay (BAZ2A bromodomain binding to acetylated peptide); conditions: single dose 100 μM; IC50 not determined; read-out: Residual activity when tested in single dose
T1 construct: made in house
T1 sequence (Q9UIF9 1793-1897 limits assumed): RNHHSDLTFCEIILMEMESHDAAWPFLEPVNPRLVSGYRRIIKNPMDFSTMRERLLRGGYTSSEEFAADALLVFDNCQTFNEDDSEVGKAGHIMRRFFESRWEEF

BAZ2A bromodomain [2] = biological target: T1, BAZ2A bromodomain; experiment: as above; conditions: for IC50: AlphaScreen dose-response
Method: The 36 selected molecules were tested by AlphaScreen at single doses in duplicate. Six molecules (compounds 8, 9, 11, 14, 18, and 25) decreased binding of BAZ2A bromodomain to the acetylated peptide by at least 50% when tested at 500 μM. […]
AlphaScreen assay was conducted as detailed in [11]. […]

BAZ2B bromodomain = biological target: T2, BAZ2B bromodomain (Homo sapiens, UniProt Q9UIF8); experiment: AlphaScreen competition binding assay on the BAZ2B bromodomain; conditions: AlphaScreen dose-response, Figure S6
T2 sequence (Q9UIF8 2060-2164 limits assumed): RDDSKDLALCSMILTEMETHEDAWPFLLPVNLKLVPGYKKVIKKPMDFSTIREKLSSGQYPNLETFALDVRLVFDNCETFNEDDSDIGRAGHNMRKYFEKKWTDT
Method: (§1) Trigonal crystals were obtained by co-crystallization as described in the same work. Monoclinic crystals were obtained by co-crystallization with compound 4 of reference; a back-soaking procedure was then applied by incubating the crystal in the crystallization solution without inhibitors for 36-48 hours, and subsequently exposing it to the new ligand of interest for 12-24 hours.
(§2) Diffraction data were collected at the Elettra Synchrotron Light Source (Trieste, Italy), XRD1 and XRD2 beamlines, and at the ESRF (Grenoble, France), ID30-A1 beamline. Data were processed and structures were solved as described elsewhere. BAZ2A/cmp9 data have been corrected for diffraction anisotropy with STARANISO (https://staraniso.globalphasing.org/cgi-bin/staraniso.cgi).
(§3) Data collection and refinement statistics are reported in Suppl. Tables 3-6. Electron densities (2Fo-Fc polder OMIT map) for the bound inhibitors are shown in Suppl. Fig. 7.
(§4) AlphaScreen assay was conducted as detailed in [11]. All experiments were performed at least in […]
(§5) Isothermal Titration Calorimetry
(§6) ITC experiments were performed using an MicroCal PEAQ-IT C microcalorimeter (Malvern Panalytical , UK) at 25°C with a stirring speed of 750 rpm in 20mM Tris pH 7. 8, 0. 2 M NaCl, 0. 2 mM TCEP and 0. 25% DMSO. For each experiment, one 0. […]

BAZ2A bromodomain [3] = biological target: T1, BAZ2A bromodomain; experiment: Isothermal titration calorimetry (ITC); assay type: binding; conditions: 25°C, 0.25% DMSO, racemic mixture, read-out: equilibrium dissociation constant (KD)
Method: as §1, §2, §3, §4, §5, §6

SMILES | remaining binding at 100 µM (BAZ2A bromodomain [1]) | also measured
Cn1cc(CCn2cnc(-c3cnn(C)c3)c2-c2ccc(C#N)cc2)cn1 [BAZ2-ICR] | – | affinity for BAZ2A (in words) (BAZ2A): very high nanomolar range
CC(=O)c1c(C)[nH]c(-c2csc(N3CCNCC3)n2)c1-c1ccnn1C [Compound 76] | > 50% | –
CCc1c(-c2csc(N3CCN(Cc4cnn5c4OCCC5)CC3)n2)[nH]c(C)c1C(C)=O [Compound 89] | > 50% | –
CCc1c(-c2csc(N3CCN(Cc4ccsc4S(N)(=O)=O)CC3)n2)[nH]c(C)c1C(C)=O [Compound 90] | > 50% | –
CCc1c(-c2csc(N3CCN(Cc4cc(S(N)(=O)=O)co4)CC3)n2)[nH]c(C)c1C(C)=O [Compound 91] | > 50% | –
CCc1c(-c2csc(N3CCNCC3C(=O)NC3CCC(C(N)=O)CC3)n2)[nH]c(C)c1C(C)=O (stereo not shown) [Compound 103] | > 50% | –
CCc1c(-c2csc(N3CCNCC3C(=O)NCCc3ccno3)n2)[nH]c(C)c1C(C)=O (stereo not shown) [Compound 104] | – | ligand efficiency (LE) (BAZ2A bromodomain [2]): 0.24 kcal/mol per heavy atom; lipophilic ligand efficiency (LLE) (BAZ2A bromodomain [2]): 4.0; IC50 (BAZ2A bromodomain [2]): 4 ± 0.2 µM; increase in potency with respect to 47 (BAZ2A bromodomain [2]; from AlphaScreen IC50): 8 fold; IC50 (BAZ2B bromodomain): 33.5 µM; Kd (BAZ2A bromodomain [3]): 7.1 µM and 7 µM
CCc1c(-c2csc(N3CCNCC3C(=O)NCC3CC4(CCC4)C3)n2)[nH]c(C)c1C(C)=O (stereo not shown) [Compound 106] | > 50% | –
CCc1c(-c2csc(N3CCNCC3C(=O)NCCC(F)(F)F)n2)[nH]c(C)c1C(C)=O (stereo not shown) [Compound 111] | – | IC50 (BAZ2A bromodomain [2]): 11 ± 0.2 µM
CCc1c(-c2csc(N3CCNCC3C(=O)NC(CO)CO)n2)[nH]c(C)c1C(C)=O (stereo not shown) [Compound 112] | – | IC50 (BAZ2A bromodomain [2]): 42 ± 5.2 µM
CCc1c(-c2csc(N3CCNCC3C(=O)NCC(C)(C)C)n2)[nH]c(C)c1C(C)=O (stereo not shown) [Compound 113] | – | IC50 (BAZ2A bromodomain [2]): 14 ± 0.3 µM
CCCOc1ccn2c(C(C)=O)cc(-c3ccccc3S(C)(=O)=O)c2c1 [GSK2801] | – | affinity for BAZ2A (in words) (BAZ2A): very high nanomolar range

Further lines, with some results ahead:

remaining binding at 100 µM (BAZ2A bromodomain [1]) | SMILES | also measured
> 50% | CCCNC(=O)c1c(C)[nH]c(-c2csc(N3CCNCC3)n2)c1CC [Compound 75] | –
> 50% | CCc1c(-c2csc(N3CCN(Cc4c[nH]c(=O)[nH]c4=O)CC3)n2)[nH]c(C)c1C(C)=O [Compound 93] | –
> 50% | CCc1c(-c2csc(N3CCN(Cc4cnc(N)nc4)CC3)n2)[nH]c(C)c1C(C)=O [Compound 94] | –
> 50% | CCc1c(-c2csc(N3CCNCC3C(=O)NCc3ncoc3C(C)C)n2)[nH]c(C)c1C(C)=O (stereo not shown) [Compound 101] | –
> 50% | CCc1c(-c2csc(N3CCNCC3C(=O)NCC3CC(C)C3)n2)[nH]c(C)c1C(C)=O (stereo not shown) [Compound 114] | –

Source: PMC9465710, “Identification of a BAZ2A-Bromodomain Hit Compound by Fragment Growing” (ACS Medicinal Chemistry Letters, 2022)
